For orientation: DC50 means the concentration giving 50% degradation.

This test deals with endogenous MLKL in MDF (Mus musculus (Mouse), UniProt Q9D2Y4). The test can be described thus: Degradation assay: endogenous MLKL in MDF (western blot). To be noted: MDF cells, 24 h incubation with compound, MLKL adjusted for loading with GAPDH, normalized to DMSO only control, read-out: Degradation of endogenous MLKL in MDF (DC50 cell-based assay). On the procedure:
Degradation Assay: Screening Compounds Procedure to Evaluate the Activity of Compounds in Degrading Endogenous MLKL in Human and Mouse Cell
The mouse dermal fibroblast (MDF) cell line was seeded the day before the experiment in a 24-well plate at a cell density of […] per well in a volume of 0.5 mL per well and left to attach overnight. The human monocyte cell line (U937) was seeded on the day of the experiment in a 24-well plate at a cell density of […] per well in a volume of 0.5 mL per well.
The compound was diluted in DMSO with a starting concentration of 10 mM and titrated stepwise with a dilution of 1:5. 0.5 μL of the compound dilution was added to the appropriate well to achieve a final concentration of 10; 2; 0.4; 0.08 and 0.016 μM. A DMSO only well was included as control.
The cells were incubated for 24 h in the presence of the compound at 37° C. and 10% CO2.
After the 24 h incubation period, the medium was removed and cells washed with 0.5 mL PBS. The cells were then lysed directly in 60 μL of 1×SDS gel loading buffer.
The cell lysate was heat-denatured at […] for 10 min. 10 μL of lysate per well were run on 18-well 4-15% Criterion TGX stain free gels (BIO-RAD). The proteins were then transferred onto nitrocellulose membrane with a wet transfer protocol in the Criterion Blotter (BIO-RAD).
Membranes were blocked with 5% skim milk in TBST. Primary antibody against MLKL (clone 3H1, MABC604 Merck) was used at 1:2000 dilution in TBST with 1% BSA and left shaking over night at 4° C. After washes with TBST, the membranes were incubated with goat anti-rat IgG HRP-conjugated antibody (Southern Biotech) in 1% skim milk TBST at 1:10000 dilution for 1 h at room temperature. After TBST washes the bands were imaged on the ChemiDoc MP Imaging System (BIO-RAD) with Immobilion Western Chemiluminescent HRP Substrate Forte (Millipore). The loading control GAPDH was probed for with rabbit anti-GAPDH (CST 14C10) at 1:2000 dilution in 1% BSA TBST over night at 4° C. TBST washes were followed by incubation with goat anti-rabbit IgG HRP-conjugated antibody (Southern Biotech) in 1% skim milk TBST at 1:10000 dilution for 1 h at room temperature followed by TBST washes. The signal was detected as described above.
The band intensity was measured in the ImageLab Software (BIO-RAD) and the MLKL values adjusted for loading with GAPDH. The percentage of degradation was calculated by normalizing the compound treated values to the DMSO only control.
On the technique in general: Immunoblotting shows a protein as a band on a membrane.

endogenous MLKL in MDF, sequence (Q9D2Y4 whole entry): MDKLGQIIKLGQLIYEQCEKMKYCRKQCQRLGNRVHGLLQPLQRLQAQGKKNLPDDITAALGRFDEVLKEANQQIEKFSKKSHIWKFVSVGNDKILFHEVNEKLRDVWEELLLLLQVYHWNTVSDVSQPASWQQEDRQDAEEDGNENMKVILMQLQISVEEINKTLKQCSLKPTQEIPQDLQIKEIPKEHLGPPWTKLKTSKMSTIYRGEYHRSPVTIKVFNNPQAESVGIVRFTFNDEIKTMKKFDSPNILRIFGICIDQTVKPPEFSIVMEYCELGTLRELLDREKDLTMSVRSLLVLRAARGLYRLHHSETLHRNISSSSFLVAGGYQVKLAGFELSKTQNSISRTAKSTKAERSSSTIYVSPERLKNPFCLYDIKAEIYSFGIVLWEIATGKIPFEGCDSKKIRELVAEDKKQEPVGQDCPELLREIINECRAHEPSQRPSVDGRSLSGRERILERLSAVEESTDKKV

In the case of `C[C@H](Oc1cc(-c2nn(C)c3c(-c4cnn(C5CCN(C(=O)[C@]67C[C@](Nc8cccc9c8C(=O)N(C8CCC(=O)NC8=O)C9=O)(C6)C7)CC5)c4)cnc(N)c23)ccc1NS(=O)(=O)C(F)F)c1ccc(F)cc1` (stereo partly drawn) [Compound 1118, N-[4-(4-amino-7-{1-[1-(3-{[2-(2,6-dioxopiperidin-3-yl)-1,3-dioxo-2,3-dihydro-1H-isoindol-4-yl]amino}bicyclo[1.1.1]pentane-1-carbonyl)piperidin-4-yl]-1H-pyrazol-4-yl}-1-methyl-1H-pyrazolo[4,3-c]pyridin-3-yl)-2-[(1S)-1-(4-fluorophenyl)ethoxy]phenyl]-1,1-difluoromethanesulfonamide], the 50% degradation concentration (DC50) is under 1000 nM.
In the case of `Cc1ncsc1-c1ccc(CNC(=O)[C@@H]2C[C@@H](O)CN2C(=O)[C@@H](NC(=O)CCCCCCCCC#Cc2cnc(N)c3c(-c4ccc(NS(=O)(=O)C(F)F)c(O[C@@H](C)c5ccc(F)cc5)c4)nn(C)c23)C(C)(C)C)cc1` [Compound 1028, (2S,4R)-1-[(2S)-2-(11-{4-amino-3-[4-(difluoromethanesulfonamido)-3-[(1S)-1-(4-fluorophenyl)ethoxy]phenyl]-1-methyl-1H-pyrazolo[4,3-c]pyridin-7-yl}undec-10-ynamido)-3,3-dimethylbutanoyl]-4-hydroxy-N-{[4-(4-methyl-1,3-thiazol-5-yl)phenyl]methyl}pyrrolidine-2-carboxamide] it was 1000 to 10000 nM; in that of `Cc1ncsc1-c1ccc(CNC(=O)[C@@H]2C[C@@H](O)CN2C(=O)[C@@H](NC(=O)CCCCCCC#Cc2cnc(N)c3c(-c4ccc(NS(=O)(=O)C(F)F)c(O[C@@H](C)c5ccc(F)cc5)c4)nn(C)c23)C(C)(C)C)cc1` [Compound 1027, (2S,4R)-1-[(2S)-2-(9-{4-amino-3-[4-(difluoromethanesulfonamido)-3-[(1S)-1-(4-fluorophenyl)ethoxy]phenyl]-1-methyl-1H-pyrazolo[4,3-c]pyridin-7-yl}non-8-ynamido)-3,3-dimethylbutanoyl]-4-hydroxy-N-{[4-(4-methyl-1,3-thiazol-5-yl)phenyl]methyl}pyrrolidine-2-carboxamide], 1000 to 10000 nM; in that of `C[C@H](Oc1cc(-c2nn(C)c3c(-c4cnn(C5CCN(CCc6cn(CCNc7cccc8c7C(=O)N(C7CCC(=O)NC7=O)C8=O)nn6)CC5)c4)cnc(N)c23)ccc1NS(=O)(=O)C(F)F)c1ccc(F)cc1` (some centres unmarked) [Compound 1135, N-(4-{4-amino-7-[1-(1-{2-[1-(2-{[2-(2,6-dioxopiperidin-3-yl)-1,3-dioxo-2,3-dihydro-1H-isoindol-4-yl]amino}ethyl)-1H-1,2,3-triazol-4-yl]ethyl}piperidin-4-yl)-1H-pyrazol-4-yl]-1-methyl-1H-pyrazolo[4,3-c]pyridin-3-yl}-2-[(1 S)-1-(4-fluorophenyl)ethoxy]phenyl)-1,1-difluoromethanesulfonamide], 1000 to 10000 nM.
In the case of `C[C@H](Oc1cc(-c2nn(C)c3c(-c4cnn(CCCCCCCOc5cccc6c5C(=O)N(C5CCC(=O)N(C)C5=O)C6=O)c4)cnc(N)c23)ccc1NS(=O)(=O)C(F)F)c1ccc(F)cc1` (stereo partly drawn) [Compound 1100, N-(4-{4-amino-1-methyl-7-[1-(7-{[2-(1-methyl-2,6-dioxopiperidin-3-yl)-1,3-dioxo-2,3-dihydro-1H-isoindol-4-yl]oxy}heptyl)-1H-pyrazol-4-yl]-1H-pyrazolo[4,3-c]pyridin-3-yl}-2-[(1S)-1-(4-fluorophenyl)ethoxy]phenyl)-1,1-difluoromethanesulfonamide] it was under 1000 nM.

The values above are taken from US20250115598A1 (Anaxis Pharma Pty Ltd, priority 2021, published 2025).
